Read-outs that look alike come from different tables or passages of the source.
Key:
Alpha1A = target: T1, Alpha1A (Homo sapiens, UniProt P35348); assay: NIMH PDSP radioligand binding, Alpha1A; settings: radioligand [3H]prazosine, n=4
T1 construct: purchased NIMH Psychoactive Drug Screening Program (PDSP)

hBGT1 = target: T2, hBGT1 (Homo sapiens, UniProt P48065); assay: [3H]GABA uptake at hBGT1 stably expressed in CHO cells; format: cell-based
T2 construct: expressed in transfected cells; host or cells: tsA201 (transient)
T2 sequence (P48065 1-614): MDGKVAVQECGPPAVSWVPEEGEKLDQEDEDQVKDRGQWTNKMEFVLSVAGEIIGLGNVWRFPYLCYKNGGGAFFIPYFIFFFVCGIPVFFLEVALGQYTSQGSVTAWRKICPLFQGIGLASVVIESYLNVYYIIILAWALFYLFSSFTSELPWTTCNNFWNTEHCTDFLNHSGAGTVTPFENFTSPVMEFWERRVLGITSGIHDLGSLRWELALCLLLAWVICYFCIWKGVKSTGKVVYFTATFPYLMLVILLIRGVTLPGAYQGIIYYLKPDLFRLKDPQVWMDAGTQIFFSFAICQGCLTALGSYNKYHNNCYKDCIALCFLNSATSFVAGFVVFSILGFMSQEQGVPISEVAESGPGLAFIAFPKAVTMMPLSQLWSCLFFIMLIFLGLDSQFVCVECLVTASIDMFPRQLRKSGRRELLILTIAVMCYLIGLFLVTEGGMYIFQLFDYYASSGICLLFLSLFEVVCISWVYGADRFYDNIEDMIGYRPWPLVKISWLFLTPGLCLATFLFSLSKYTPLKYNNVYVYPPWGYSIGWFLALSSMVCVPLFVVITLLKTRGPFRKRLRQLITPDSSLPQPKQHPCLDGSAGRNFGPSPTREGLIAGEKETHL
Method: The HEK-293 and Flp-In CHO cell lines stably expressing mouse (m) and human (h) GATs, respectively, have been described previously and were cultured accordingly. The tsA201 cell line was used for transient expression while the MDCK II cell line express BGT1 endogenously. Both cell lines were cultured as described. tsA201 cells were transfected with DNA constructs (8 μg per 10 cm dish if not otherwise mentioned) using 40 μL PolyFect transfection reagent according to the manufacturer’s protocol (Qiagen, Venlo, Netherlands). The DNA constructs encoding hBGT1, hGAT1-3 [36], the mutated constructs hBGT1 Q299 and hGAT3 L314Q described previously, and hBGT Y453A were synthesized and sequence validated by Genscript (NJ, USA).
The [^3H]GABA competition uptake assay was performed as previously described. A minor change, however, was introduced for uptake in MDCK II cells, in which 100 nM [^3H]GABA was used for a 15 min incubation period at 37 °C instead of 30 nM [^3H]GABA and 3 min incubation. Studies related to the inhibition curves with GABA and BPDBA at hBGT1 were obtained both with and without the presence of 10 μM ATP during the [^3H]GABA uptake assay.
The [^3H]GABA uptake data was normalized to the percentage of total uptake in the individual experiments in the presence of the lowest compound concentration or no compound present. Data presented is the pooled data of at least three independent experiments with three technical replicates. Concentration–response curves (CRCs) were fitted with GraphPad Prism (version 8.2.1, Yosemite, GraphPad Software, San Diego, CA, USA) by non-linear regression to the sigmoidal concentration response model: Y=Bottom+(Top-Bottom)/1+10^LogIC50-X∗nH where Top is the Top plateau, Bottom is the Bottom plateau, X is the logarithm of the concentration of the compound, LogIC50 is the concentration giving a response halfway between Top and Bottom,and nH is the Hill slope.
The best fit for CRCs obtained with the [^3H]GABA uptake assay was identified by the extra-sum-of-squares F test (for convenience referred to as F test).

5-HT7 = target: T3, 5-HT7 (Homo sapiens, UniProt P34969); assay: NIMH PDSP radioligand binding, 5-HT7; settings: radioligand [3H]LSD, n=4
T3 construct: purchased NIMH Psychoactive Drug Screening Program (PDSP)
T3 sequence (P34969 whole entry): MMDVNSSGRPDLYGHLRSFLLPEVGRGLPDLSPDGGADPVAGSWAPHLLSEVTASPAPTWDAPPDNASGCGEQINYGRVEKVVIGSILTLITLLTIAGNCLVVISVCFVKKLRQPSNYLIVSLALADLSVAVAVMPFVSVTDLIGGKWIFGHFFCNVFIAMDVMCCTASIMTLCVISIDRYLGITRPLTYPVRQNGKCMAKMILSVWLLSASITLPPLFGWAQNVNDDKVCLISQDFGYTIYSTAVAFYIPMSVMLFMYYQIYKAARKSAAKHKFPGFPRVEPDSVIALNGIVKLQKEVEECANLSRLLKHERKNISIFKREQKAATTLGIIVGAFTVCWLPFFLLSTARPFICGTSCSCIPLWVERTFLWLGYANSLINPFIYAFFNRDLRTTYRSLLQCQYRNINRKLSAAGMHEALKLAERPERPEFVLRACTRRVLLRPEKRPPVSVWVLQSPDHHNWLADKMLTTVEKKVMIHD

AGS Frings mice = assay: Audiogenic induced seizure test; format: in vivo, mouse
Source text: Male audiogenic-susceptible (AGS) Frings mice were obtained from an in-house breeding facility at the University of Utah (Salt Lake City, UT, USA). Male CF-1 mice for the maximal electroshock (MES) test and the subcutaneous pentylenetetrazol (s.c.PTZ) seizure threshold test were purchased from Charles River (Kingston, WA, USA). All mice were housed in a temperature, humidity, and light (on at 6:00 AM) controlled facility at the University of Utah with access to ad libitum food and water except during testing. All procedures were carried out at the University of Utah in concordance with the National Institutes of Health Guidelines for the Care and Use of Laboratory Animals and under approval from the University of Utah’s Institutional Animal Care and Use Committee. The mice were euthanized in accordance with Public Health Service policies on the humane care of laboratory animals. […] The seizures were induced as previously described. In brief, Frings mice were placed in a Plexiglas cylinder (diameter 15 cm, height 18 cm) connected to an audio transducer and exposed to a sound stimulus of 110 decibel (11 kHz) for a duration of 20 s. […] Probit analysis was used to analyse the efficacy and tolerability results obtained from the dose–response studies and to calculate the median effective (ED50) dose, the median toxic dose (TD50), and the 95% confidence interval.

Alpha1D = target: T4, Alpha1D (Homo sapiens, UniProt P25100); assay: NIMH PDSP radioligand binding, Alpha1D; settings: radioligand [3H]prazosine, n=4
T4 construct: purchased NIMH Psychoactive Drug Screening Program (PDSP)
T4 sequence (P25100 whole entry): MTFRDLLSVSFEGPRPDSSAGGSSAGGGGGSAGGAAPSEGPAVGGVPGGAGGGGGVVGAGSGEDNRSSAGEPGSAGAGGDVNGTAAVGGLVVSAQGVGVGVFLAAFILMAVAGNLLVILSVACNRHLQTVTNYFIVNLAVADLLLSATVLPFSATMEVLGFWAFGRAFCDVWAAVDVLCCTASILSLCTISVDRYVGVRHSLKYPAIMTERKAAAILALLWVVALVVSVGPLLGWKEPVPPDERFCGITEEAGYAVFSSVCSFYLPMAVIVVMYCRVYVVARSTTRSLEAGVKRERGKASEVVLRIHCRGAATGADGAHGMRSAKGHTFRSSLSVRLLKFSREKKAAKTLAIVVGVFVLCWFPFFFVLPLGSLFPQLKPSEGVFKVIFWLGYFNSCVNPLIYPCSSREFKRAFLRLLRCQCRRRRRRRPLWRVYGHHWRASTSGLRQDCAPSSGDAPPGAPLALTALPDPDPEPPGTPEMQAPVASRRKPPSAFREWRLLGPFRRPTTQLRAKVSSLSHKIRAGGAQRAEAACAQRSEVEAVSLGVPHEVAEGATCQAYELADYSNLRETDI

Beta3 = target: T5, Beta3 (Homo sapiens, UniProt P13945); assay: NIMH PDSP radioligand binding, Beta3; settings: radioligand [3H]CGP12177, n=4
T5 construct: purchased NIMH Psychoactive Drug Screening Program (PDSP)
T5 sequence (P13945 whole entry): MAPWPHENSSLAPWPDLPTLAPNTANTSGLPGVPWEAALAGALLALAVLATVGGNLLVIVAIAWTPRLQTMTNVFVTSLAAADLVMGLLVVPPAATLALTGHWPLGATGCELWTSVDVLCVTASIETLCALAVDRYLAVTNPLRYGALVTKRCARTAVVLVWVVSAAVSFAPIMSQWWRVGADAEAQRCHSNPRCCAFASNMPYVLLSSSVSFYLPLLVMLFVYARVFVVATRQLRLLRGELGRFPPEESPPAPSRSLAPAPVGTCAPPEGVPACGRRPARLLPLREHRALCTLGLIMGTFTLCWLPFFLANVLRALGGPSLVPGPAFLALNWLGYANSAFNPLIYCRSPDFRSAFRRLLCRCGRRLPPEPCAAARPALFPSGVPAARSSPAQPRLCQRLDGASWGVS

Alpha1B = target: T6, Alpha1B (Homo sapiens, UniProt P35368); assay: NIMH PDSP radioligand binding, Alpha1B; settings: radioligand [3H]prazosine, n=4
T6 construct: purchased NIMH Psychoactive Drug Screening Program (PDSP)
T6 sequence (P35368 whole entry): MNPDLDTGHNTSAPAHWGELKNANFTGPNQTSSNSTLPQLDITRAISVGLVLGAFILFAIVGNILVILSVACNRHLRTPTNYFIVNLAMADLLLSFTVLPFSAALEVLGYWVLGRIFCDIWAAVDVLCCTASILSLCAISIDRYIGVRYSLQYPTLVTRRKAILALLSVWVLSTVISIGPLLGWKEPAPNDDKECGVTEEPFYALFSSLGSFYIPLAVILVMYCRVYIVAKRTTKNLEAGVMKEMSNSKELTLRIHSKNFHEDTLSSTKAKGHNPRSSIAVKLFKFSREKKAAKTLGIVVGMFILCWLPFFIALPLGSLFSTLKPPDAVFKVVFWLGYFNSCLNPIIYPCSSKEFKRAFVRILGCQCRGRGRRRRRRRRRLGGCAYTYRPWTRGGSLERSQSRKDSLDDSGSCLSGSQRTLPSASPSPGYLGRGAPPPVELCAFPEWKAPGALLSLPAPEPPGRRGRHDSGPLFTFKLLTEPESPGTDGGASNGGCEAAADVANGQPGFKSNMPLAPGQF

T1 sequence (P35348 whole entry): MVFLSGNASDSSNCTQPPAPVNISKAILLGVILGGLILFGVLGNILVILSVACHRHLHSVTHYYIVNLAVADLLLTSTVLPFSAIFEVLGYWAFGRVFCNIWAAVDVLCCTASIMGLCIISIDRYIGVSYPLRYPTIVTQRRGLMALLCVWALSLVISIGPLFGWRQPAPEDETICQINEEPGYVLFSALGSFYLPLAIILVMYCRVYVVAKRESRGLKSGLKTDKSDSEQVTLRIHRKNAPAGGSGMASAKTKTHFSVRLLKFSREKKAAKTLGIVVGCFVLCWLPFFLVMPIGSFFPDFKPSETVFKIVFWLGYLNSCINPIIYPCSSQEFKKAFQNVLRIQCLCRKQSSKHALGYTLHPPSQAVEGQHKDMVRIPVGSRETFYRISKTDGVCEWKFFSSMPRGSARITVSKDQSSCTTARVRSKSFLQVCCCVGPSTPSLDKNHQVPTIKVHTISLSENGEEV

## Cc1ccsc1C(=CCCN(C)[C@H]1CCCC[C@H]1C(=O)O)c1sccc1C [SBV2-114, (1R,2S)-2-((4,4-bis(3-methylthiophen-2-yl)but-3-en-yl)(methyl)amino)cyclohexanecarboxylic acid]
Alpha1A
  inhibition at 10 µM: 0.1%
hBGT1; IC50, high affinity component, biphasic fit, N=2 of four experiments, CHO
  IC50: 0.05 µM
hBGT1; biphasic fit, N=2, CHO
  Frac: 0.10
hBGT1; pIC50 ± S.E.M., high affinity component, biphasic fit, N=2, CHO
  IC50: 0.0513 µM
hBGT1; preferred model, N=2
  Fit: Biphasic
hBGT1; read-out: IC50, low affinity component, biphasic fit, N=2, CHO
  IC50: 490 µM
hBGT1; single IC50, N=2, fit not given, CHO, read-out: IC50
  IC50: 447 µM
5-HT7
  inhibition at 10 µM: 14.1%
AGS Frings mice; 50 mg/kg i.p., 15 min
  #Protected/#Tested: 3/4
AGS Frings mice; 50 mg/kg i.p., 30 min
  #Protected/#Tested: 2/4
AGS Frings mice; 50 mg/kg i.p., 60 min
  #Protected/#Tested: 1/4
AGS Frings mice; 50 mg/kg i.p., 120 min
  #Protected/#Tested: 0/4
AGS Frings mice; 120 mg/kg i.p., 30 min
  #Protected/#Tested: 4/4
AGS Frings mice; 120 mg/kg i.p., 60 min
  #Protected/#Tested: 3/4
AGS Frings mice; 120 mg/kg i.p., 120 min
  #Protected/#Tested: 2/4
AGS Frings mice; 120 mg/kg i.p., 240 min
  #Protected/#Tested: 1/4
AGS Frings mice; concluded from seizure protection after i.p. dosing
  brain permeance: brain-permeant
AGS Frings mice; i.p., Frings mice, a faster TPE cannot be excluded
  time-to peak (TPE): 15 min
Alpha1D
  inhibition at 10 µM: -4.7%
Beta3
  inhibition at 10 µM: 8.3%
Alpha1B
  inhibition at 10 µM: 1.9%

Source: PMC7297817, “Pharmacological Characterization of a Betaine/GABA Transporter 1 (BGT1) Inhibitor Displaying an Unusual Biphasic Inhibition Profile and Anti-seizure Effects” (Neurochemical Research, 2020)
